Laboratory results from patent publication US11300570B2, “Therapeutic and diagnostic methods for cancer” (Genentech, Inc., priority 2016, dated 2022).

Assays:
[1] = tested on: locally advanced or metastatic NSCLC; test: OAK Phase III randomized trial, atezolizumab vs docetaxel, in 2L+ NSCLC, efficacy by tTMB; format: in vivo, human; details: 2L+ OAK
Text: (§1) Patients were eligible for enrollment in the POPLAR study if they had locally advanced or metastatic (e.g., stage IIIB, stage IV, or recurrent) NSCLC; disease progression during or following treatment with a prior platinum-containing regimen for locally advanced, unresectable/inoperable, or metastatic NSCLC, or disease recurrence within 6 months of treatment with a platinum-based adjuvant/neoadjuvant regimen; measurable disease, as defined by RECIST v1.1; and an ECOG performance status of 0 or 1. Participants were randomized to receive either atezolizumab at a dose of 1200 mg intravenously every three weeks or docetaxel 75 mg per meter square (mg/m^2) intravenously every three weeks. Treatment with atezolizumab could be continued as long as participants were experiencing clinical benefit, i.e., in the absence of unacceptable toxicity or symptomatic deterioration attributed to disease progression. Pre-treatment tumor samples from patients in the Phase III OAK trial (Clinical Trial ID No.: NCT02008227) were also evaluated for tTMB. Patients were eligible for enrollment in the OAK study if they had locally advanced or metastatic (e.g., stage IIIB, stage IV, or recurrent) NSCLC; disease progression during or following treatment with a prior platinum-containing regimen for locally advanced, unresectable/inoperable, or metastatic NSCLC, or disease recurrence within 6 months of treatment with a platinum-based adjuvant/neoadjuvant regimen; measurable disease, as defined by RECIST v1.1; and an ECOG performance status of 0 or 1. Participants were randomized to receive either atezolizumab at a dose of 1200 mg intravenously every three weeks or docetaxel 75 mg per square meter (mg/m^2) intravenously every three weeks. Treatment with atezolizumab could be continued as long as participants were experiencing clinical benefit, i.e., in the absence of unacceptable toxicity or symptomatic deterioration attributed to disease progression.
(§2) To identify somatic mutations, tumor samples (e.g., archival tumor samples) were processed as described in Frampton et al. Nat. Biotechnol. 31:1023-31, 2013. Sequencing libraries were constructed to sequence and analyze samples. In addition to standard mutation processing, a mutation load estimation algorithm was applied that, based on the number of somatic mutations and/or rearrangements detected in Table 1 or Table 2, respectively, extrapolates to the exome or the genome as a whole. For purposes of mutation load estimation, all coding short variant alterations, base substitutions, and indels detected in the genes listed in Table 1 and Table 2 were counted. Further, all coding alterations (base substitutions and indels), including synonymous alterations, with the exception of known oncogenic driver mutations, in the genes listed in Table 1 and Table 2 were counted. However, numerous classes of detected alterations were not counted: non-coding alterations; alterations with known (occurring as known somatic alterations in the COSMIC database (Forbes et al. (2014) Nucl. Acids Res. 43:D805-11) and likely (truncations in tumor suppressor genes) functional status; known germline alterations in the dbSNP database (Sherry et al. (2001) Nucleic Acids Res. 29(1):308-11); germline alterations occurring with two or more counts in the ExAC database (Exome Aggregation Consortium (ExAC), Cambridge, Mass.); alterations that are predicted to be germline in the specimen being assessed; and alterations that are predicted to be germline in a cohort of >60,000 clinical specimens. Finally, to calculate the mutation load per megabase, the total number of mutations counted was divided by the coding region target territory of the test, which was 1.110 megabases (Mb) for the current version of the test. The average median coverage value for all samples was 490.
The BEP was defined as patients with at least one tTMB measurement from a baseline tumor sample. […]

[2] = tested on: locally advanced or metastatic NSCLC (PD-L1-unselected patients); test: POPLAR Phase II randomized trial, atezolizumab vs docetaxel, in 2L+ PD-L1-unselected NSCLC, efficacy by tTMB; format: in vivo, human
Text: as §1
Data from the single-arm, PD-L1-selected trials BIRCH and FIR were combined and analyzed to examine the association between tTMB and clinical outcomes among PD-L1-selected patients. Data from the randomized, PD-L1-unselected trial, POPLAR, were analyzed separately and treatment effects between the atezolizumab- and docetaxel-treatment arms were compared.
as §2, with “Finally, to calculate the mutation load per megabase, the total number of mutations counted was divided by the coding region target territory of the test, which was 1.110 megabases (Mb) for the current version of the test. The average median coverage value for all samples was 490.” left out

[3] = BEP (evaluable for TMB) (n = 174 atezolizumab, 186 docetaxel)
[4] = tTMB score <9 mut/Mb (n = 91 atezolizumab, 87 docetaxel)
[5] = tTMB score <16 mut/Mb (n = 135 atezolizumab, 136 docetaxel)
[6] = tTMB score ≥9 mut/Mb (n = 83 atezolizumab, 99 docetaxel)
[7] = tTMB score ≥16 mut/Mb (n = 39 atezolizumab, 50 docetaxel)

Q: How did the “Median OS” value [1, 3] turn out when CC(=O)O[C@@]12CO[C@@H]1C[C@H](O)[C@@]1(C)C(=O)[C@H](O)C3=C(C)[C@@H](OC(=O)[C@H](O)[C@@H](NC(=O)OC(C)(C)C)c4ccccc4)C[C@@](O)([C@@H](OC(=O)c4ccccc4)[C@H]21)C3(C)C [docetaxel] was run?
A: 9.8 months

Q: What about the “Median PFS” value [1, 3] of the same compound?
A: 3.81 months

Q: What about the “Median OS” value ([1]; ITT (n = 425 per arm)) of the same compound?
A: 9.6 months

Q: And the “Median PFS” value ([1]; ITT (n = 425 per arm))?
A: 4.0 months

Q: What about the “Median OS” value [1, 4] of the same compound?
A: 10.8 months

Q: What about the “Median PFS” value [1, 4] of the same compound?
A: 4.1 months

Q: And the “Median OS” value [1, 5]?
A: 10.1 months

Q: What about the “Median PFS” value [1, 5] of the same compound?
A: 4.0 months

Q: What about the “Median OS” value [1, 6] of the same compound?
A: 9.7 months

Q: And the “Median PFS” value [1, 6]?
A: 3.6 months

Q: And the “Median OS” value [1, 7]?
A: 9.7 months

Q: And the “Median PFS” value [1, 7]?
A: 3.5 months

Q: What about the “ORR (confirmed per RECIST v1.1) with increasing tTMB” value ([2]; POPLAR, per treatment arm) of the same compound?
A: did not experience improvement in ORR

Q: What about the ORR ([2]; POPLAR, BEP (n = 54 atezolizumab vs 38 docetaxel)) of the same compound?
A: 15%

Q: What about the ORR ([2]; POPLAR, ITT (n = 144 atezolizumab vs 143 docetaxel)) of the same compound?
A: 15% vs 15%

Q: What about the ORR ([2]; POPLAR, tTMB quantile ≥25%) of the same compound?
A: 10%

Q: And the ORR ([2]; POPLAR, tTMB quantile ≥50% (median))?
A: 4%

Q: What about the ORR ([2]; POPLAR, tTMB quantile ≥75%) of the same compound?
A: 8%

Q: And the “association of tissue TMB with efficacy” value ([2]; docetaxel arm, 2L+ NSCLC, randomized setting)?
A: not associated with the efficacy
